Experimental data from PubChem BioAssay AID330 (DTP/NCI, 2004).
Several values for one entry are separate records, joined by “and”; a condition that tells them apart may be missing. Equal values may be shown once. Inconclusive results and toxic doses are left out. How the source made its calls: active means survival T/C of 150% or more; inactive means T/C below 125% in these data.

Test system: P388 leukemia ip, CD2F1 mice, survival T/C
Experiment: NCI In Vivo Anticancer Drug Screen. Data for tumor model P388 Leukemia (intraperitoneal) in CD2F1 (CDF1) mice
Conditions: endpoint: median survival time, higher = longer survival
Procedure, shortened: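 Mice carrying the transplanted tumor received test compound or vehicle. Survival was recorded in each group, and the value is the treated-group measurement divided by that of the vehicle-treated control group.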

[1] = dose: 25.0 mg/kg/injection, schedule: Q01DX009 (ip), vehicle: Klucel (hydroxypropylcellulose) (HPC)
[2] = dose: 100.0 mg/kg/injection, schedule: Q04DX003 (ip), vehicle: Klucel (hydroxypropylcellulose) (HPC)
[3] = dose: 200.0 mg/kg/injection, schedule: Q04DX003 (ip), vehicle: Klucel (hydroxypropylcellulose) (HPC)
[4] = dose: 400.0 mg/kg/injection, schedule: Q04DX003 (ip), vehicle: Klucel (hydroxypropylcellulose) (HPC)
[5] = dose: 100.0 mg/kg/injection, schedule: Q01DX009 (ip), vehicle: saline
[6] = dose: 200.0 mg/kg/injection, schedule: Q01DX009 (ip), vehicle: saline

Measured: T/C

O=C1OC2(C=C1Br)CCC21C=C(Br)C(=O)O1 (configuration not stated)
inactive: [1] 98 % of control

CC/C=c1/[nH]c(=O)/c(=C\c2ccc([N+](=O)[O-])cc2)[nH]c1=O
inactive: [1] 90 % of control | dose: 50.0 mg/kg/injection, schedule: Q01DX009 (ip), vehicle: Klucel (hydroxypropylcellulose) (HPC) 87 % of control and 91 % of control | dose: 100.0 mg/kg/injection, schedule: Q01DX009 (ip), vehicle: Klucel (hydroxypropylcellulose) (HPC) 86 % of control | dose: 200.0 mg/kg/injection, schedule: Q01DX009 (ip), vehicle: Klucel (hydroxypropylcellulose) (HPC) 94 % of control

OCC(F)(F)C(F)(F)C(F)(F)CO
inactive: dose: 100.0 mg/kg/injection, schedule: Q04DX003 (ip), vehicle: saline 100 % of control | dose: 200.0 mg/kg/injection, schedule: Q04DX003 (ip), vehicle: saline 100 % of control | dose: 400.0 mg/kg/injection, schedule: Q04DX003 (ip), vehicle: saline 100 % of control

COc1ccc(N2CCN(/C=C3\Cc4c(F)cccc4C3=O)CC2)cc1
inactive: [2] 97 % of control | [3] 103 % of control | [4] 101 % of control

c1ccc2cc3n[se]nc3cc2c1
inactive: dose: 60.0 mg/kg/injection, schedule: Q01DX005 (ip), vehicle: saline with Tween-80 100 % of control | dose: 120.0 mg/kg/injection, schedule: Q01DX005 (ip), vehicle: saline with Tween-80 90 % of control

CCOP(O)(=S)OCC.[Tb]
inactive: [2] 92 % of control | [3] 87 % of control | [4] 90 % of control

[N-]=[N+]=C(S(=O)(=O)O)S(=O)(=O)O
inactive: dose: 50.0 mg/kg/injection, schedule: Q01DX009 (ip), vehicle: saline 107 % of control | [5] 112 % of control | [6] 107 % of control | dose: 400.0 mg/kg/injection, schedule: Q01DX009 (ip), vehicle: saline 107 % of control

O=NNc1cncc2ccccc12
inactive: dose: 1.56 mg/kg/injection, schedule: Q01DX009 (ip), vehicle: water 100 % of control | dose: 3.12 mg/kg/injection, schedule: Q01DX009 (ip), vehicle: water 94 % of control | dose: 6.0 mg/kg/injection, schedule: Q01DX008 (ip), vehicle: water 102 % of control | dose: 6.25 mg/kg/injection, schedule: Q01DX009 (ip), vehicle: water 94 % of control | dose: 12.5 mg/kg/injection, schedule: Q01DX008 (ip), vehicle: water 113 % of control | dose: 12.5 mg/kg/injection, schedule: Q01DX009 (ip), vehicle: water 104 % of control | dose: 25.0 mg/kg/injection, schedule: Q01DX008 (ip), vehicle: water 111 % of control | dose: 25.0 mg/kg/injection, schedule: Q01DX009 (ip), vehicle: water 115 % of control | dose: 50.0 mg/kg/injection, schedule: Q01DX008 (ip), vehicle: water 116 % of control

COc1ccc(/C(C)=N/N=c2/sc3ccccc3n2CC(=O)O)cc1
inactive: dose: 100.0 mg/kg/injection, schedule: Q01DX001 (ip), vehicle: saline with Tween-80 101 % of control | dose: 200.0 mg/kg/injection, schedule: Q01DX001 (ip), vehicle: saline with Tween-80 101 % of control | dose: 400.0 mg/kg/injection, schedule: Q01DX001 (ip), vehicle: saline with Tween-80 91 % of control

COc1cccc2c1C(=O)c1c(O)c3c(c(O)c1C2=O)C[C@@](O)(C(=O)COC(=O)Cc1ccccc1)C[C@@H]3OC1CC(N)C(O)C(C)O1 (some centres not stated)
inactive: dose: 16.0 mg/kg/injection, schedule: Q01DX009 (ip), vehicle: saline with Tween-80 105 % of control
active: dose: 1.0 mg/kg/injection, schedule: Q01DX009 (ip), vehicle: saline with Tween-80 166 % of control and 194 % of control | dose: 1.32 mg/kg/injection, schedule: Q01DX009 (ip), vehicle: saline sonified 195 % of control | dose: 2.0 mg/kg/injection, schedule: Q01DX009 (ip), vehicle: saline sonified 215 % of control | dose: 2.0 mg/kg/injection, schedule: Q01DX009 (ip), vehicle: saline with Tween-80 151 % of control and 166 % of control and 212 % of control | dose: 3.0 mg/kg/injection, schedule: Q01DX009 (ip), vehicle: saline sonified 270 % of control

CCCNC(=O)Nc1cc(Cl)ccc1OC
inactive: dose: 132.0 mg/kg/injection, schedule: Q04DX003 (ip), vehicle: saline with Tween-80 100 % of control | dose: 200.0 mg/kg/injection, schedule: Q04DX003 (ip), vehicle: saline with Tween-80 100 % of control | dose: 300.0 mg/kg/injection, schedule: Q04DX003 (ip), vehicle: saline with Tween-80 100 % of control

COC(=O)[C@H]1O[C@H]1c1ccccn1
inactive: dose: 25.0 mg/kg/injection, schedule: Q01DX005 (ip), vehicle: distilled water + alcohol 103 % of control | dose: 50.0 mg/kg/injection, schedule: Q01DX005 (ip), vehicle: distilled water + alcohol 106 % of control | dose: 100.0 mg/kg/injection, schedule: Q01DX005 (ip), vehicle: distilled water + alcohol 99 % of control | dose: 200.0 mg/kg/injection, schedule: Q01DX005 (ip), vehicle: distilled water + alcohol 107 % of control

C#CCOCC(O)CCl (configuration not stated)
inactive: [5] 90 % of control | [6] 105 % of control
